Laboratory results: article PMC5099976 (ACS chemical biology, 2016)

How the values were obtained:
[1] = target: WT genotype 1a NS3/4A protease (Hepatitis C virus genotype 1a, UniProt P27958, C1073S/C1078L/C1185S/I1043Q/I1044E/I1098T/L1039E/L1040E/L1047Q/N1200S/T1100M/T1173A); experiment: Isothermal titration calorimetry, WT protease; format: binding; conditions: for Ki: WT protease, Table S4
[2] = target: A156T NS3/4A protease variant (Hepatitis C virus genotype 1a, UniProt P27958, A1182T/C1073S/C1078L/C1185S/I1043Q/I1044E/I1098T/L1039E/L1040E/L1047Q/N1200S/T1100M/T1173A/V1687N); format: binding; conditions: binding A156T protease; ITC at 25 °C
[3] = tested on: A156T NS3/4A protease variant; format: binding, Hepatitis C Virus; conditions: A156T relative to WT; Table S4
[4] = binding WT protease, ITC at 25 °C

Row | SMILES | Ki [1] | Ki ([1]; listed as P1–P3) | enthalpy of binding [1, 4] | entropic contribution to binding (−TΔS) [1, 4] | enthalpy of binding [2] | enthalpic change due to A156T mutation [3] | entropic loss due to A156T mutation [3]
1 | CCc1nc2ccc(OC)cc2nc1O[C@@H]1C[C@H]2C(=O)N[C@]3(C(=O)NS(=O)(=O)C4CC4)C[C@H]3/C=C\CCCCC[C@H](NC(=O)OC(C)(C)C)C(=O)N2C1 [5172-mcP1P3] | 1.96 nM | 2 nM | -5.8 kcal/mol | -6.0 kcal/mol | -6.3 kcal/mol | -0.5 kcal/mol | 3.3 kcal/mol
2 | C=C[C@@H]1C[C@]1(NC(=O)[C@@H]1C[C@@H]2CN1C(=O)[C@H](C(C)(C)C)NC(=O)O[C@@H]1C[C@H]1CCCCCc1nc3ccc(OC)cc3nc1O2)C(=O)NS(=O)(=O)C1CC1 [MK-5172, reference compound] |  |  |  |  |  | 2.7 kcal/mol | 2.2 kcal/mol
